Data taken from patent publication US20030119904A1, “Acetyl L-carnitine salt with a dicarboxilic organic acid and process for preparing same” (priority 2001, published 2003).
Where a name gives a salt, the structure may show the parent alone.

Assays:
[1] = known from prior art / marketed product; cited from earlier work
[2] = Hygroscopicity: exposure of powder or granules to relative humidity at 25° C. for 24 hours; type: physicochemical
Method: By “hygroscopic” is meant herein the bothersome property shown by most of L-carnitine and alkanoyl L-carnitine salts (particularly by their “inner salts”) to undergo, when they occur as powders or granules, significant alteration of their flowability due to their clotting, agglomeration or even deliquescence, following exposure to an environment of relative humidity […] 50-60%, at 25° C., for 24 hours.

| Structure (SMILES) | hygroscopicity (prior art statement) [1] | hygroscopicity of the isolated solid ([2]; non-hygroscopic = withstands relative humidity of at least 60%, as powder or granules, without clotting, agglomeration or deliquescence) | relative humidity withstood without loss of flowability ([2]; powder or granules) |
| --- | --- | --- | --- |
| CC(=O)O[C@H](CC(=O)[O-])C[N+](C)(C)C [acetyl L-carnitine inner salt] | high hygroscopicity |  |  |
| C[N+](C)(C)C[C@H](O)CC(=O)O.O=C([O-])/C=C/C(=O)O [L-carnitine acid fumarate] | non-hygroscopic |  |  |
| CC(=O)O[C@H](CC(=O)O)C[N+](C)(C)C.O=C([O-])/C=C/C(=O)O [ALCFH, acetyl L-carnitine acid fumarate] |  | non-hygroscopic | ≥ 60% |
